According to EP2768830B1, “APOPTOSIS-INDUCING AGENTS FOR THE TREATMENT OF CANCER AND IMMUNE AND AUTOIMMUNE DISEASES” (AbbVie Inc., priority 2011, dated 2013):
Read-outs that look alike come from different tables or passages of the source.

How the values were obtained:
[1] = system: mouse FL5.12 cells transfected with Bcl-XL; experiment: FL5.12 cellular assay (cell viability, CellTiter-Glo); format: cell-based; conditions: FL5.12 cells transfected with Bcl-XL, IL-3-depleted, 3% FBS assay media, 24 hours, CellTiter-Glo, read-out: FL5.12 Bcl-xL, - IL3, EC 50;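 also: each EC50 determination derived from duplicate measurements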
GST-Bcl-xL = GST-Bcl-xL (Homo sapiens, UniProt Q07817); conditions: read-out: TR-FRET binding Bcl-xL Ki
Chain of GST-Bcl-xL (Q07817 whole entry): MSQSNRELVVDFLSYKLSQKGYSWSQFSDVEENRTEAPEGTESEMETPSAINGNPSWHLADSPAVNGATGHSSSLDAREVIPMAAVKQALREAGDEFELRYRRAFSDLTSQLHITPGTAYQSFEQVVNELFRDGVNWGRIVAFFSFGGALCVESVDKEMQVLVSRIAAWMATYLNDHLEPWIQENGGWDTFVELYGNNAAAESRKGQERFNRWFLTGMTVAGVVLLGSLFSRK

Row | Compound | EC50 ([1]; Mus musculus) [nM] | Ki (GST-Bcl-xL) [nM] | EC50 [1] [nM]
1 | Cc1c(-c2ccc(N3CCc4cccc(C(=O)Nc5nc6ccccc6s5)c4C3)nc2C(=O)O)cnn1CC1CCCC1 [Example 63, 6-[8-(1,3-benzothiazol-2-ylcarbamoyl)-3,4-dihydroisoquinolin-2(1H)-yl]-3-[1-(cyclopentylmethyl)-5-methyl-1H-pyrazol-4-yl]pyridine-2-carboxylic acid] | 27 | 2 | –
2 | CN(C)CCOc1ccccc1Cn1cc(-c2ccc(N3CCc4cccc(C(=O)Nc5nc6ccccc6s5)c4C3)nc2C(=O)O)cn1 [Example 40, 6-[8-(1,3-benzothiazol-2-ylcarbamoyl)-3,4-dihydroisoquinolin-2(1H)-yl]-3-(1-{2-[2-(dimethylamino)ethoxy]benzyl}-1H-pyrazol-4-yl)pyridine-2-carboxylic acid] | 570 | 16 | –
3 | Cc1c(-c2ccc(N3CCc4cccc(C(=O)Nc5nc6ccccc6s5)c4C3)nc2C(=O)O)cnn1CC1(OCCS(C)(=O)=O)CCCC(C)(C)C1 (stereo not drawn) [Example 178, 6-[8-(1,3-benzothiazol-2-ylcarbamoyl)-3,4-dihydroisoquinolin-2(1H)-yl]-3-[1-({3,3-dimethyl-1-[2-(methylsulfonyl)ethoxy]cyclohexyl}methyl)-5-methyl-1H-pyrazol-4-yl]pyridine-2-carboxylic acid] | 0.2 | < 0.1 | –
4 | COCCOC1(Cn2ncc(-c3ccc(N4CCc5cccc(C(=O)Nc6nc7ccccc7s6)c5C4)nc3C(=O)O)c2C)CCCCCC1 [Example 151, 6-[8-(1,3-benzothiazol-2-ylcarbamoyl)-3,4-dihydroisoquinolin-2(1H)-yl]-3-(1-{[1-(2-methoxyethoxy)cycloheptyl]methyl}-5-methyl-1H-pyrazol-4-yl)pyridine-2-carboxylic acid] | 0.6 | < 0.1 | –
5 | Cc1c(-c2ccc(N3CCc4cccc(C(=O)Nc5nc6ccccc6s5)c4C3)nc2C(=O)O)ccnc1N(C)c1ccccc1 [Example 143, 6-[8-(1,3-benzothiazol-2-ylcarbamoyl)-3,4-dihydroisoquinolin-2(1H)-yl]-3'-methyl-2'-[methyl(phenyl)amino]-3,4'-bipyridine-2-carboxylic acid] | 19 | < 0.1 | –
6 | COCCC1(Cn2cc(-c3ccc(N4CCc5cccc(C(=O)Nc6nc7ccccc7s6)c5C4)nc3C(=O)O)cn2)CCCCC1 [Example 88, 6-[8-(1,3-benzothiazol-2-ylcarbamoyl)-3,4-dihydroisoquinolin-2(1H)-yl]-3-(1-{[1-(2-methoxyethyl)cyclohexyl]methyl}-1H-pyrazol-4-yl)pyridine-2-carboxylic acid] | 229 | 3 | –
7 | O=C(Nc1nc2ccccc2s1)c1cccc2c1CN(c1ccc(-c3cnn(Cc4ccccc4)c3-c3ccccc3)c(C(=O)O)n1)CC2 [Example 65, 6-[8-(1,3-benzothiazol-2-ylcarbamoyl)-3,4-dihydroisoquinolin-2(1H)-yl]-3-(1-benzyl-5-phenyl-1H-pyrazol-4-yl)pyridine-2-carboxylic acid] | > 1000 | 393 | –
8 | CN(C)CC#Cc1ccccc1Cn1cc(-c2ccc(N3CCc4cccc(C(=O)Nc5nc6ccccc6s5)c4C3)nc2C(=O)O)cn1 [Example 51, 6-[8-(1,3-benzothiazol-2-ylcarbamoyl)-3,4-dihydroisoquinolin-2(1H)-yl]-3-(1-{2-[3-(dimethylamino)prop-1-yn-1-yl]benzyl}-1H-pyrazol-4-yl)pyridine-2-carboxylic acid] | > 1000 | 122 | –
9 | O=C(Nc1nc2ccccc2s1)c1cccc2c1CN(c1ccc(-c3cccc(Oc4ccccc4)c3)c(C(=O)O)n1)CC2 [Example 103, 6-[8-(1,3-benzothiazol-2-ylcarbamoyl)-3,4-dihydroisoquinolin-2(1H)-yl]-3-(3-phenoxyphenyl)pyridine-2-carboxylic acid] | – | 0.6 | > 1000
10 | O=C(Nc1nc2ccccc2s1)c1cccc2c1CN(c1ccc(-c3cccc(OC4CCCCC4)c3Cl)c(C(=O)O)n1)CC2 [Example 117, 6-[8-(1,3-benzothiazol-2-ylcarbamoyl)-3,4-dihydroisoquinolin-2(1H)-yl]-3-[2-chloro-3-(cyclohexyloxy)phenyl]pyridine-2-carboxylic acid] | 131 | < 0.1 | –
11 | Cc1c(-c2ccc(N3CCc4cccc(C(=O)Nc5nc6ccccc6s5)c4C3)nc2C(=O)O)cc(C#N)n1CC1CCCCC1 [Example 130, 6-[8-(1,3-benzothiazol-2-ylcarbamoyl)-3,4-dihydroisoquinolin-2(1H)-yl]-3-[5-cyano-1-(cyclohexylmethyl)-2-methyl-1H-pyrrol-3-yl]pyridine-2-carboxylic acid] | 30 | < 0.1 | –
12 | O=C(Nc1nc2ccccc2s1)c1cccc2c1CN(c1ccc(-c3cnn(Cc4cc(F)ccc4F)c3)c(C(=O)O)n1)CC2 [Example 54, 6-[8-(1,3-benzothiazol-2-ylcarbamoyl)-3,4-dihydroisoquinolin-2(1H)-yl]-3-[1-(2,5-difluorobenzyl)-1H-pyrazol-4-yl]pyridine-2-carboxylic acid] | 501 | 15 | –
13 | O=C(Nc1nc2ccccc2s1)c1cccc2c1CN(c1ccc(-c3ccn(C(=O)c4ccccc4)c3)c(C(=O)O)n1)CC2 [Example 127, 6-[8-(1,3-benzothiazol-2-ylcarbamoyl)-3,4-dihydroisoquinolin-2(1H)-yl]-3-(1-benzoyl-1H-pyrrol-3-yl)pyridine-2-carboxylic acid] | > 1000 | 2 | –
14 | Cc1c(-c2ccc(N3CCc4cccc(C(=O)Nc5nc6ccccc6s5)c4C3)nc2C(=O)O)ccnc1OC1CCCCC1 [Example 138, 6-[8-(1,3-benzothiazol-2-ylcarbamoyl)-3,4-dihydroisoquinolin-2(1H)-yl]-2'-(cyclohexyloxy)-3'-methyl-3,4'-bipyridine-2-carboxylic acid] | > 1000 | < 0.1 | –
15 | O=C(Nc1nc2ccccc2s1)c1cccc2c1CN(c1ccc(-c3cnn(C(c4ccccc4)c4ccccc4)c3)c(C(=O)O)n1)CC2 [Example 75, 6-[8-(1,3-benzothiazol-2-ylcarbamoyl)-3,4-dihydroisoquinolin-2(1H)-yl]-3-[1-(diphenylmethyl)-1H-pyrazol-4-yl]pyridine-2-carboxylic acid] | 919 | 28 | –
16 | Cc1c(NC2CCCCC2)cccc1-c1ccc(N2CCc3cccc(C(=O)Nc4nc5ccccc5s4)c3C2)nc1C(=O)O [Example 118, 6-[8-(1,3-benzothiazol-2-ylcarbamoyl)-3,4-dihydroisoquinolin-2(1H)-yl]-3-[3-(cyclohexylamino)-2-methylphenyl]pyridine-2-carboxylic acid] | 361 | 0.2 | –
17 | Cc1c(-c2ccc(N3CCc4cccc(C(=O)Nc5nc6ccccc6s5)c4C3)nc2C(=O)O)cnn1CC1(OCC2COCCO2)CCCCCC1 (stereo not drawn) [Example 173, 6-[8-(1,3-benzothiazol-2-ylcarbamoyl)-3,4-dihydroisoquinolin-2(1H)-yl]-3-(1-{[1-(1,4-dioxan-2-ylmethoxy)cycloheptyl]methyl}-5-methyl-1H-pyrazol-4-yl)pyridine-2-carboxylic acid] | 0.1 | < 0.1 | –
18 | O=C(Nc1nc2ccccc2s1)c1cccc2c1CN(c1ccc(-c3cnn(Cc4cccc(C(F)(F)F)c4)c3)c(C(=O)O)n1)CC2 [Example 61, 6-[8-(1,3-benzothiazol-2-ylcarbamoyl)-3,4-dihydroisoquinolin-2(1H)-yl]-3-{1-[3-(trifluoromethyl)benzyl]-1H-pyrazol-4-yl}pyridine-2-carboxylic acid] | 380 | 11 | –
